In patent US20240172750A1, “5-Fluoro-4-Imino-3-Methyl-1-Tosyl-3,4-Dihydropyrimidin-2(1H)-One for Controlling Plant Diseases” (Adama Makhteshim Ltd., priority 2021, published 2024):
Like-named read-outs stand apart in the source and are kept apart here.

Tests used:
[1] = system: soybean seedlings cv RAS 04; conditions: in vivo
Method: (§1) Treated or untreated soybean seeds were allowed to dry under laminar flow for 24 h before sowing.
Plastic Box of 500 cc were filled with 250 ml extra fine (vermiculite up to 2 5 cm of the top 3 boxes per treatment. 50 ml of sterilized soybean seeds previously inoculated with Sclerotinia sclerotiorum (strain Sscl wt) grounded and mixed with XF vermiculite were spread over the 250 ml vermiculite. Same was done with the non-inoculated seeds serving as a reference for the germination test.
The inoculum was covered with 100 ml (1 cm) of XF vermiculite, and then 9 untreated or treated 9 soybean seeds were sown in each box. Seeds were covered with 150 ml (1.5 cm) of XF vermiculite. The substrate was moistened with 200 ml of tap water and then weekly once with tap water and once with a 0 5 g/l nutrients solution (Plant Prod, Ltd N P K 20 20 20 and micronutrients). The lid was punctured and then placed on each box for 5 days to maintain saturated humidity. Boxes were placed in a climatic chamber with a photoperiod of 16 h light/8 h darkness, 2424° C. day/1818° C. night and a relative humidity of 85.
Phytotoxicity assessments were carried out checking analyzing the following parameters: • a. Rate of emergence of soybean seedlings after 7 days post sowing dps. • b. General development (pictures) of the aerial part of the soybean plants after 3 weeks of incubation

[2] = system: soybean seedlings cv RAS 04; conditions: in vivo; remark: listed apart in the source
Method: Disinfected seed surface of the soybean cultivar RAS 04 from RAGT were treated with the laboratory seed dressing equipment called Bol Hégé with the following products: • ADM 00050 F 1 A (500 SC) at 0.002-0.005-0.01-0.02 and 0.05 L/100 Kg seeds (1-2.5-5-10-25 g ai/100 Kg seeds), without coating agent. • Vibrance duo (25+25 g ai/L of Fludioxonil and Sedaxane SC) at 0.2 L/100 Kg seeds, corresponding to 5+5 g ai/100 Kg seeds of Fludioxonil and Sedaxane • Santhal (465 g ai/L of Metalaxyl-M (Mefenoxam) EC) at 0.064 L/100 Kg seeds (3 g ai/100 Kg seeds of Metalaxyl-M=Mefenoxam) without coating agent • Sterile distilled water Untreated Control, without coating agent
as §1
Plastic Box of 500 cc were filled with 250 ml extra fine (vermiculite up to 2 5 cm of the top 3 boxes per treatment. 50 ml of sterilized soybean seeds previously inoculated with Rhizoctonia solani (strain RsolAG 2 2) grounded and mixed with XF vermiculite were spread over the 250 ml vermiculite. Same was done with the non-inoculated seeds serving as a reference for the germination test.
The inoculum was covered with 100 ml (1 cm) of XF vermiculite, and then 9 untreated or treated 9 soybean seeds were sown in each box. Seeds were covered with 150 ml (1.5 cm) of XF vermiculite. […]

SMILES: COCC(=O)N(c1c(C)cccc1C)[C@H](C)C(=O)OC [Metalaxyl-M]
- Seedling emergence rate (% of the total) [1]: 77.8 +/− 6.4a % of the total
- Seedling emergence rate (% of the total) [2]: 77.8 +/− 6.4a % of the total
